From ChEMBL document CHEMBL1201862, “PubChem BioAssay data set” (2004)
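Each compound was tested at five concentrations against cells in 96-well plates for 48 hours. GI50 marks 50% less growth.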 Active and inactive are the calls of the source. Rule as the data show it: active = GI50 up to about 1.1 µM and inactive = higher.

Experiments:
Test in all cases: DTP human tumour cell line panel, 48 h
RXF 393 = system: RXF 393
Hs-578T = system: Hs-578T
KM12 = system: KM12
M14 = system: M14
OVCAR-3 = system: OVCAR-3
DU-145 = system: DU-145
SF-539 = system: SF-539
MOLT-4 = system: MOLT-4
NCI/ADR-RES = system: NCI/ADR-RES
UACC-62 = system: UACC-62
SK-OV-3 = system: SK-OV-3
MCF7 = system: MCF7
BT-549 = system: BT-549
NCI-H226 = system: NCI-H226
RPMI-8226 = system: RPMI-8226
HCT-15 = system: HCT-15
SK-MEL-5 = system: SK-MEL-5
SK-MEL-28 = system: SK-MEL-28
NCI-H23 = system: NCI-H23
OVCAR-5 = system: OVCAR-5
A498 = system: A498
IGROV-1 = system: IGROV-1
SF-268 = system: SF-268
ACHN = system: ACHN
OVCAR-8 = system: OVCAR-8
SK-MEL-2 = system: SK-MEL-2
MDA-MB-231 = system: MDA-MB-231
SN12C = system: SN12C
SW-620 = system: SW-620
MDA-N = system: MDA-N
HOP-62 = system: HOP-62
CAKI-1 = system: CAKI-1
SNB-19 = system: SNB-19
HL-60 = system: HL-60
EKVX = system: EKVX
HCT-116 = system: HCT-116
TK-10 = system: TK-10
PC-3 = system: PC-3
UO-31 = system: UO-31
LOX IMVI = system: LOX IMVI
COLO 205 = system: COLO 205
UACC-257 = system: UACC-257
U-251 = system: U-251
HCC 2998 = system: HCC 2998
786-0 = system: 786-0
OVCAR-4 = system: OVCAR-4
SF-295 = system: SF-295
T47D = system: T47D
HOP-92 = system: HOP-92
SNB-75 = system: SNB-75
MDA-MB-435 = system: MDA-MB-435
CCRF-CEM = system: CCRF-CEM
A549 = system: A549
Malme-3M = system: Malme-3M
NCI-H522 = system: NCI-H522
SR = system: SR
NCI-H460 = system: NCI-H460
HT-29 = system: HT-29
K562 = system: K562

SMILES: Cc1cn(C2CC(n3cc(Cn4cc(F)c(=O)[nH]c4=O)nn3)C(CO)O2)c(=O)[nH]c1=O (stereo unspecified)
- GI50 (RXF 393): > 100 µM (inactive)
- GI50 (Hs-578T): > 100 µM (inactive)
- GI50 (KM12): > 100 µM (inactive)
- GI50 (M14): > 100 µM (inactive)
- GI50 (OVCAR-3): > 100 µM (inactive)
- GI50 (DU-145): > 100 µM (inactive)
- GI50 (SF-539): > 100 µM (inactive)
- GI50 (MOLT-4): > 100 µM (inactive)
- GI50 (NCI/ADR-RES): > 100 µM (inactive)
- GI50 (UACC-62): > 100 µM (inactive)
- GI50 (SK-OV-3): > 100 µM (inactive)
- GI50 (MCF7): > 100 µM (inactive)
- GI50 (BT-549): > 100 µM (inactive)
- GI50 (NCI-H226): > 100 µM (inactive)
- GI50 (RPMI-8226): > 100 µM (inactive)
- GI50 (HCT-15): > 100 µM
- GI50 (SK-MEL-5): > 100 µM (inactive)
- GI50 (SK-MEL-28): > 100 µM (inactive)
- GI50 (NCI-H23): > 100 µM (inactive)
- GI50 (OVCAR-5): > 100 µM (inactive)
- GI50 (A498): > 100 µM (inactive)
- GI50 (IGROV-1): > 100 µM (inactive)
- GI50 (SF-268): > 100 µM (inactive)
- GI50 (ACHN): > 100 µM (inactive)
- GI50 (OVCAR-8): > 100 µM (inactive)
- GI50 (SK-MEL-2): > 100 µM (inactive)
- GI50 (MDA-MB-231): > 100 µM (inactive)
- GI50 (SN12C): > 100 µM (inactive)
- GI50 (SW-620): > 100 µM (inactive)
- GI50 (MDA-N): > 100 µM (inactive)
- GI50 (HOP-62): > 100 µM (inactive)
- GI50 (CAKI-1): > 100 µM (inactive)
- GI50 (SNB-19): > 100 µM (inactive)
- GI50 (HL-60): 43.7 µM (inactive)
- GI50 (EKVX): > 100 µM (inactive)
- GI50 (HCT-116): > 100 µM (inactive)
- GI50 (TK-10): > 100 µM (inactive)
- GI50 (PC-3): > 100 µM (inactive)
- GI50 (UO-31): > 100 µM (inactive)
- GI50 (LOX IMVI): > 100 µM (inactive)
- GI50 (COLO 205): > 100 µM (inactive)
- GI50 (UACC-257): > 100 µM (inactive)
- GI50 (U-251): > 100 µM (inactive)
- GI50 (HCC 2998): > 100 µM (inactive)
- GI50 (786-0): > 100 µM (inactive)
- GI50 (OVCAR-4): > 100 µM (inactive)
- GI50 (SF-295): > 100 µM (inactive)
- GI50 (T47D): > 100 µM (inactive)
- GI50 (HOP-92): > 100 µM (inactive)
- GI50 (SNB-75): > 100 µM (inactive)
- GI50 (MDA-MB-435): > 100 µM (inactive)
- GI50 (CCRF-CEM): > 100 µM (inactive)
- GI50 (A549): > 100 µM (inactive)
- GI50 (Malme-3M): > 100 µM (inactive)

SMILES: CCn1c(-c2cc(OC)cc(OC)c2)nc2c1C(=O)c1ccccc1C2=O
- GI50 (RXF 393): 13.9 µM (inactive)
- GI50 (Hs-578T): 36.5 µM (inactive)
- GI50 (KM12): > 100 µM (inactive)
- GI50 (M14): > 100 µM (inactive)
- GI50 (OVCAR-3): > 100 µM (inactive)
- GI50 (DU-145): > 100 µM (inactive)
- GI50 (SF-539): > 100 µM (inactive)
- GI50 (NCI-H522): 6.46 µM (inactive)
- GI50 (SR): > 100 µM (inactive)
- GI50 (MOLT-4): > 100 µM (inactive)
- GI50 (NCI/ADR-RES): > 100 µM (inactive)
- GI50 (UACC-62): 20.6 µM (inactive)
- GI50 (SK-OV-3): 3.9 µM (inactive)
- GI50 (MCF7): > 100 µM (inactive)
- GI50 (BT-549): > 100 µM (inactive)
- GI50 (NCI-H226): > 100 µM (inactive)
- GI50 (RPMI-8226): > 100 µM (inactive)
- GI50 (NCI-H460): > 100 µM (inactive)
- GI50 (HCT-15): > 100 µM
- GI50 (SK-MEL-5): > 100 µM (inactive)
- GI50 (SK-MEL-28): > 100 µM (inactive)
- GI50 (NCI-H23): > 100 µM (inactive)
- GI50 (HT-29): > 100 µM (inactive)
- GI50 (OVCAR-5): > 100 µM (inactive)
- GI50 (IGROV-1): > 100 µM (inactive)
- GI50 (SF-268): 65.8 µM (inactive)
- GI50 (ACHN): > 100 µM (inactive)
- GI50 (OVCAR-8): > 100 µM (inactive)
- GI50 (MDA-MB-231): > 100 µM (inactive)
- GI50 (SN12C): > 100 µM (inactive)
- GI50 (SW-620): > 100 µM (inactive)
- GI50 (MDA-N): > 100 µM (inactive)
- GI50 (HOP-62): 64.6 µM (inactive)
- GI50 (K562): > 100 µM (inactive)
- GI50 (SNB-19): > 100 µM (inactive)
- GI50 (HL-60): > 100 µM (inactive)
- GI50 (EKVX): > 100 µM (inactive)
- GI50 (HCT-116): > 100 µM (inactive)
- GI50 (TK-10): > 100 µM (inactive)
- GI50 (PC-3): > 100 µM (inactive)
- GI50 (COLO 205): > 100 µM (inactive)
- GI50 (UACC-257): > 100 µM (inactive)
- GI50 (U-251): > 100 µM (inactive)
- GI50 (HCC 2998): > 100 µM (inactive)
- GI50 (786-0): 45.4 µM (inactive)
- GI50 (OVCAR-4): > 100 µM (inactive)
- GI50 (SF-295): 29.2 µM (inactive)
- GI50 (T47D): > 100 µM (inactive)
- GI50 (HOP-92): 60 µM (inactive)
- GI50 (SNB-75): 22.4 µM (inactive)
- GI50 (MDA-MB-435): > 100 µM (inactive)
- GI50 (CCRF-CEM): > 100 µM (inactive)
- GI50 (A549): > 100 µM (inactive)
- GI50 (Malme-3M): > 100 µM (inactive)

SMILES: COC(=O)c1c(OC)cc2cc3c(c(O)c2c1C)C(=O)C1(O)C(=O)C=C(OC)C(OC(=O)CC(C)N)=C1C3=O (stereo unspecified)
- GI50 (Hs-578T): 7.52 µM (inactive)
- GI50 (KM12): 5.64 µM (inactive)
- GI50 (M14): 32.7 µM (inactive)
- GI50 (OVCAR-3): 22.6 µM (inactive)
- GI50 (DU-145): 11.6 µM (inactive)
- GI50 (SF-539): 8.59 µM (inactive)
- GI50 (NCI-H522): 12.1 µM (inactive)
- GI50 (SR): 12.9 µM (inactive)
- GI50 (MOLT-4): 5.32 µM (inactive)
- GI50 (NCI/ADR-RES): 23.2 µM (inactive)
- GI50 (UACC-62): 17.1 µM (inactive)
- GI50 (MCF7): 15.6 µM (inactive)
- GI50 (BT-549): 34.7 µM (inactive)
- GI50 (RPMI-8226): 7.6 µM (inactive)
- GI50 (NCI-H460): 7.05 µM (inactive)
- GI50 (HCT-15): 17.3 µM
- GI50 (SK-MEL-5): 26.9 µM (inactive)
- GI50 (SK-MEL-28): 31.3 µM (inactive)
- GI50 (NCI-H23): 8.95 µM (inactive)
- GI50 (HT-29): 4.88 µM (inactive)
- GI50 (OVCAR-5): 87.3 µM (inactive)
- GI50 (IGROV-1): 13.6 µM (inactive)
- GI50 (SF-268): 16.5 µM (inactive)
- GI50 (ACHN): 8.65 µM (inactive)
- GI50 (OVCAR-8): 11.9 µM (inactive)
- GI50 (SK-MEL-2): 15.2 µM (inactive)
- GI50 (MDA-MB-231): 8.47 µM (inactive)
- GI50 (SN12C): > 100 µM (inactive)
- GI50 (SW-620): 37.7 µM (inactive)
- GI50 (MDA-N): > 100 µM (inactive)
- GI50 (HOP-62): 29 µM (inactive)
- GI50 (CAKI-1): 14.2 µM (inactive)
- GI50 (SNB-19): 6.41 µM (inactive)
- GI50 (HL-60): 16.4 µM (inactive)
- GI50 (EKVX): 20 µM (inactive)
- GI50 (HCT-116): 4.28 µM (inactive)
- GI50 (TK-10): 22.1 µM (inactive)
- GI50 (PC-3): 20.9 µM (inactive)
- GI50 (UO-31): 18.7 µM (inactive)
- GI50 (LOX IMVI): 8.49 µM (inactive)
- GI50 (COLO 205): > 100 µM (inactive)
- GI50 (UACC-257): 19.4 µM (inactive)
- GI50 (U-251): 33.5 µM (inactive)
- GI50 (HCC 2998): 6.68 µM (inactive)
- GI50 (786-0): 13.6 µM (inactive)
- GI50 (OVCAR-4): 18.3 µM (inactive)
- GI50 (SF-295): 7.69 µM (inactive)
- GI50 (T47D): 20.9 µM (inactive)
- GI50 (HOP-92): 18.2 µM (inactive)
- GI50 (SNB-75): 2.54 µM (inactive)
- GI50 (MDA-MB-435): 41.2 µM (inactive)
- GI50 (CCRF-CEM): 4.74 µM (inactive)
- GI50 (A549): 18.6 µM (inactive)
